Our source for the GI50 and TGI values is PubChem BioAssay (NCI).

Among the test systems are SF-539 CNS; IGROV1 ovarian; HCC-2998 colon; SK-OV-3 ovarian; NCI-H460 lung; HT29 colon; OVCAR-4 ovarian; SF-295 CNS; UACC-257 melanoma; A498 renal.
Assay in all cases: DTP human tumour cell line panel, 48 h

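How tested: cells in 96-well plates exposed to compound for 48 hours at five concentrations. At the GI50, growth is halved. TGI: total growth inhibition.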

A word on the GI50: it is the concentration giving 50% growth inhibition. Usually TGI stands for the concentration giving total growth inhibition. Higher therefore signals less potent growth arrest. Turning to `CC(=O)OCC1OC(n2ccc(=O)[nH]c2=O)C(OC(C)=O)C1OC(C)=O` (stereo not given), the GI50 in the assay with SF-539 CNS, in the assay on IGROV1 ovarian, in the assay on HCC-2998 colon, in the assay on SK-OV-3 ovarian, with NCI-H460 lung and in the assay with HT29 colon was over 100 µM each time. Besides, the GI50 with OVCAR-4 ovarian, in the assay with SF-295 CNS, with UACC-257 melanoma and in the assay on A498 renal was over 100 µM in each case. In addition, the TGI with SF-539 CNS, in the assay with IGROV1 ovarian, with HCC-2998 colon, in the assay on SK-OV-3 ovarian, in the assay with NCI-H460 lung and in the assay on HT29 colon was over 100 µM in each case. Besides, the TGI in the assay with OVCAR-4 ovarian, with SF-295 CNS, in the assay on UACC-257 melanoma and with A498 renal was over 100 µM each time.

For the compound `Clc1nc(Cl)c2c(ncn2C/C=C\Cn2cnc3c(Cl)nc(Cl)nc32)n1`, the GI50 was 2.38 µM in the assay on SF-539 CNS; 0.269 µM in the assay with IGROV1 ovarian; 1.5 µM in the assay with HCC-2998 colon; 2.48 µM in the assay with SK-OV-3 ovarian; 2.34 µM in the assay with NCI-H460 lung; 1.4 µM in the assay on HT29 colon. In addition, the GI50 with OVCAR-4 ovarian is 1.73 µM; in the assay with SF-295 CNS it was 8.99 µM; in the assay on UACC-257 melanoma it was 1.48 µM; in the assay on A498 renal it was 12.4 µM. In addition, the total growth inhibition concentration (TGI) with SF-539 CNS stood at 5.46 µM; in the assay with IGROV1 ovarian, 0.771 µM; in the assay on HCC-2998 colon it was 3.05 µM; in the assay on SK-OV-3 ovarian it was 9.07 µM; with NCI-H460 lung, 5.65 µM; in the assay with HT29 colon, 2.73 µM. Further, the TGI with OVCAR-4 ovarian worked out at 3.28 µM; in the assay on SF-295 CNS it was 21.1 µM; in the assay with UACC-257 melanoma, 5.9 µM; in the assay with A498 renal, 25.6 µM.

As to `NNC(=O)CCC(=O)NC1C2CC3CC(C2)CC1C3` (stereo not given), the concentration for total growth inhibition (TGI) with SF-539 CNS, in the assay with IGROV1 ovarian, in the assay with HCC-2998 colon, in the assay on SK-OV-3 ovarian, with NCI-H460 lung and in the assay with HT29 colon was over 100 µM each time. For the same compound, the TGI in the assay with OVCAR-4 ovarian, with SF-295 CNS, in the assay on UACC-257 melanoma and with A498 renal was over 100 µM each time.

As to `COc1cc([C@@H]2c3cc4c(cc3[C@@H](NC(=O)c3ccccc3)C3COC(=O)[C@@H]32)OCO4)cc(OC)c1O` (stereo not given in full), the TGI was 24.8 µM with SF-539 CNS; 25.7 µM in the assay on IGROV1 ovarian; 35.4 µM with HCC-2998 colon; over 100 µM with SK-OV-3 ovarian; 15.2 µM in the assay with NCI-H460 lung; 22 µM with HT29 colon. Also, the TGI in the assay on OVCAR-4 ovarian was over 100 µM; in the assay with SF-295 CNS it was over 100 µM; with UACC-257 melanoma, 48.1 µM; with A498 renal, 27 µM.

With `CC1S(=O)(=O)OCCOS1(=O)=O`, the TGI in the assay with SF-539 CNS, with IGROV1 ovarian, with HCC-2998 colon, in the assay with SK-OV-3 ovarian, in the assay with NCI-H460 lung and with HT29 colon was over 100 µM throughout. In addition, the TGI in the assay on OVCAR-4 ovarian, with SF-295 CNS, in the assay on UACC-257 melanoma and in the assay on A498 renal was over 100 µM in each case.

Take `C=C1CC[C@@H]2[C@](C)(COC(C)=O)[C@H](OC(C)=O)CC[C@@]2(C)[C@@H]1CC(Nc1ccc(S(=O)(=O)Nc2nccc(C)n2)cc1)C1=CCOC1=O` (stereo not given in full): the GI50 is 2.07 µM in the assay on SF-539 CNS; 3.62 µM in the assay with IGROV1 ovarian; 4.98 µM in the assay on HCC-2998 colon; 12.7 µM with SK-OV-3 ovarian; 4.88 µM in the assay on NCI-H460 lung; 2.02 µM with HT29 colon. Besides, the GI50 with OVCAR-4 ovarian is 4.37 µM; in the assay with SF-295 CNS it was 12.4 µM; with UACC-257 melanoma, 4.8 µM; with A498 renal, 14.8 µM. Further, the TGI with SF-539 CNS came out at 4.73 µM; in the assay on IGROV1 ovarian, 13.6 µM; in the assay with HCC-2998 colon it was 17.9 µM; with SK-OV-3 ovarian, 25.3 µM; with NCI-H460 lung, 18.3 µM; in the assay with HT29 colon it was 4.24 µM. The TGI in the assay with OVCAR-4 ovarian came to 15.8 µM; with SF-295 CNS, 25.6 µM; with UACC-257 melanoma it was 16.4 µM; in the assay with A498 renal, 28.4 µM.

On to `C=C1C(=O)O[C@H]2[C@H]1CC/C(COC(=O)N1CCC[C@H]1C(=O)Nc1ccc(OC)c(C(N)=O)c1O)=C\CC[C@@]1(C)O[C@@H]21`, for which the GI50 in the assay on SF-539 CNS was 2.07 µM; in the assay on IGROV1 ovarian it was 2.82 µM; in the assay on HCC-2998 colon it was 8.61 µM; in the assay on SK-OV-3 ovarian, 20.9 µM; in the assay on NCI-H460 lung it was 11.4 µM; in the assay with HT29 colon, 3.24 µM. Also, the GI50 is 2.88 µM in the assay with OVCAR-4 ovarian, 12.1 µM in the assay on SF-295 CNS, 2.88 µM with UACC-257 melanoma and 9.17 µM with A498 renal. Further, the TGI was 5.76 µM with SF-539 CNS; 9.13 µM with IGROV1 ovarian; 23.3 µM in the assay with HCC-2998 colon; 65.6 µM in the assay with SK-OV-3 ovarian; 29 µM with NCI-H460 lung; 11.1 µM in the assay with HT29 colon. Also, the TGI is 12.9 µM in the assay on OVCAR-4 ovarian, 27.4 µM in the assay with SF-295 CNS, 10.9 µM in the assay with UACC-257 melanoma and 22.6 µM with A498 renal.

With `C=C(C)C(=O)O[C@H]1[C@H]2[C@H](OC(=O)[C@H]2C)[C@H](O)[C@@H](C)[C@@H]2C=CC(=O)[C@]21C`, the TGI with SF-539 CNS amounted to 16.5 µM; in the assay with IGROV1 ovarian, 7 µM; in the assay with HCC-2998 colon it was 5.72 µM; in the assay on SK-OV-3 ovarian, 18.3 µM; in the assay with NCI-H460 lung it was 3.72 µM; in the assay on HT29 colon it was 10.7 µM. Moreover, the TGI is 19.9 µM with OVCAR-4 ovarian, 18.7 µM with SF-295 CNS, 7.73 µM in the assay with UACC-257 melanoma and 6.56 µM with A498 renal.

On to `O=NNc1nc(-c2cccnc2)nc2ccccc12`, for which the TGI in the assay with SF-539 CNS, with IGROV1 ovarian, in the assay on HCC-2998 colon, in the assay with SK-OV-3 ovarian, in the assay on NCI-H460 lung and with HT29 colon was over 100 µM each time. Moreover, the TGI in the assay with OVCAR-4 ovarian, with SF-295 CNS, in the assay on UACC-257 melanoma and with A498 renal was over 100 µM throughout.
